Test [1] relates to neutrophils. To be noted: cited from earlier work.
Test [2] has as its target T1, PI3K activity in α-(EE)-p101 immunoprecipitates from U937 cells (Homo sapiens, UniProt P48736).
T1 construct: U937 cells (human) contain an endogenous PI3K catalytic subunit; expressed in transfected cells; host or cells: U937 (p101 transfected, catalytic subunit endogenous)
Put plainly: PI3K assay on α-(EE)-p101 immunoprecipitates from transfected U937 cells. It counts as biochemical.
Experimental: U937 cells were transiently transfected with mammalian expression vectors encoding either (EE)120 or (EE)101, co-transfected in combination with mammalian expression vectors encoding myc101, myc120, or an irrelevant control myc fusion protein, as indicated. A total of 40 μg of vector DNA was used. After co-transfection, the cells lysed, precleaned and immunoprecipitated with protein G sepharose covalently cross-linked to α-(EE) monoclonal antibody as described more fully in the Examples herein. The resulting immunoprecipitates were washed and Gβγ-activated (1 μM, final concentration) PI3K activity was assayed. The PI3K activity detected in immunoprecipitates from cells transfected with irrelevant (EE)-tagged protein, either with or without Gβγs was subtracted from the data shown (these were means of 1896 dpm and 2862 dpm in the absence and presence of Gβγs, respectively).
If the PI3K assays were performed on immunoprecipitates from U937 cells (see following examples) then the PI3K was immobilized on 10 μl of packed protein G Sepharose beads in an ice-cold buffer defined above. 30 μl of a mixture of phospholipids with or without Gβγs and/or Gαs (either GDP-bound or activated) was added to the 5 μl fractions, or 10 μl of beads, and mixed. […]

The test system of test [3] is Gβγ-activated PI3K (PI3Ks A and B; p117/p101 and p120/p101 heterodimers). Put plainly: PI3K assay on purified pig neutrophil Gβγ-activated PI3Ks A and B. The conditions noted are these: 100 nM wortmannin; 5 μM ATP in the assays. The test is classed as biochemical.
Test [4] addresses free p120 PI3K catalytic subunit (Sus scrofa, UniProt O02697). In words: PI3K assay on free recombinant p120 (Sf9-derived). It counts as biochemical, porcine.
Experimental: Assays contained either 7 nM p101/p120 or 36 nM p120 alone (final concentrations) which were incubated with various reagents; 10 mM NaF and 30 μM AlCl3 (A/F) ; 1 μM Gβγ-subunits (βγ); 2 μM Gα-GDP; 100 nM wortmannin (W) or 50 μM tyrosine phosphorylated peptide (PY) for a total of 15 minutes (at 0° C.) prior to starting the assays by adding [γ^32 P]-ATP; [^32 P]-incorporated into [^32 P]-PtdIns(3,4,5) P3 was quantified. The data shown are means (n=2).
Purified aliquots of Sf9 -derived or pig neutrophil cytosol-derived PI3K were diluted in ice-cold 0.12M NaCl, 25 mM HEPES, 1 mM EGTA, 1 mM DTT, 1 mg-ml^-1 BSA, 1% betaine, 0.02%, w/v, Tween-20, pH 7.4, 0° C. to an appropriate extent, then 5 μl aliquots were stored on ice until assayed. […] 30 μl of a mixture of phospholipids with or without Gβγs and/or Gαs (either GDP-bound or activated) was added to the 5 μl fractions, or 10 μl of beads, and mixed. After 10 minutes on ice, 5-10 μl of last wash buffer, supplemented with MgCl2 to give a final concentration in the extant assay volume of 3.5 mM, was added and mixed. Six minutes later, 5 μl of last wash buffer was added (to give a final assay volume of 50 μl) containing [^32 ]-ATP (typically 10 μCi assay^-1, Amersham, PB10168) and 3.5 mM MgCl2, tubes were mixed and transferred to a 30° C. water bath. […]

Structures are written as SMILES.

Sequence of free p120 PI3K catalytic subunit (O02697 whole entry): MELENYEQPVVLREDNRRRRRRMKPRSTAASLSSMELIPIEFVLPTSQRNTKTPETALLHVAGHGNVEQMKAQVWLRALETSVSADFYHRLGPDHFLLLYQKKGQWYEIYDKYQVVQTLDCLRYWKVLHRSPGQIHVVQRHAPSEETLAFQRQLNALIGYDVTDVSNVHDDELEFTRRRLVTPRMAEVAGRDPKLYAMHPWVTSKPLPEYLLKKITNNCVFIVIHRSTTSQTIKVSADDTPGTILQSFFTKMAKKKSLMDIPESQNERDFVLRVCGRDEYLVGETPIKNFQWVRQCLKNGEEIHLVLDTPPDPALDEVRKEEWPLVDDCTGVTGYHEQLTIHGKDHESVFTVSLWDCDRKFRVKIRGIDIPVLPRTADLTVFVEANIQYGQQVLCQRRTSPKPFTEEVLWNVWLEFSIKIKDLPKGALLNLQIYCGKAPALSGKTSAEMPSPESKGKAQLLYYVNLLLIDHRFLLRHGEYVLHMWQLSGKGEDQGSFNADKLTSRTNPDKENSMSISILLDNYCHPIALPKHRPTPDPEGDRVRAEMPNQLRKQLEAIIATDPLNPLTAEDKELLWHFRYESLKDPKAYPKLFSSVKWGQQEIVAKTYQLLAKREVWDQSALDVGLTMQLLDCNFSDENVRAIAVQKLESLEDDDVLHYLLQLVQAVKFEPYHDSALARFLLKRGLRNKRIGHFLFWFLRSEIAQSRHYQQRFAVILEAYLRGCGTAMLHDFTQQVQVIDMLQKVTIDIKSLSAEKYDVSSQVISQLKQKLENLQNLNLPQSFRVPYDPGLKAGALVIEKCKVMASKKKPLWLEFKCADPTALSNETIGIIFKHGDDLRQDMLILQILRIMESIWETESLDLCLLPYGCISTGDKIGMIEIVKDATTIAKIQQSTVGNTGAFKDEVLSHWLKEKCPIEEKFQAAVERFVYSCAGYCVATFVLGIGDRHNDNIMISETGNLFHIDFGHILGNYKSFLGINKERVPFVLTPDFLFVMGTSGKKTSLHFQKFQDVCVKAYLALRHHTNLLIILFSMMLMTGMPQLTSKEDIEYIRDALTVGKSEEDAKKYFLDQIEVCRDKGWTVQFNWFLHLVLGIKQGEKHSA
T1 sequence (P48736 whole entry): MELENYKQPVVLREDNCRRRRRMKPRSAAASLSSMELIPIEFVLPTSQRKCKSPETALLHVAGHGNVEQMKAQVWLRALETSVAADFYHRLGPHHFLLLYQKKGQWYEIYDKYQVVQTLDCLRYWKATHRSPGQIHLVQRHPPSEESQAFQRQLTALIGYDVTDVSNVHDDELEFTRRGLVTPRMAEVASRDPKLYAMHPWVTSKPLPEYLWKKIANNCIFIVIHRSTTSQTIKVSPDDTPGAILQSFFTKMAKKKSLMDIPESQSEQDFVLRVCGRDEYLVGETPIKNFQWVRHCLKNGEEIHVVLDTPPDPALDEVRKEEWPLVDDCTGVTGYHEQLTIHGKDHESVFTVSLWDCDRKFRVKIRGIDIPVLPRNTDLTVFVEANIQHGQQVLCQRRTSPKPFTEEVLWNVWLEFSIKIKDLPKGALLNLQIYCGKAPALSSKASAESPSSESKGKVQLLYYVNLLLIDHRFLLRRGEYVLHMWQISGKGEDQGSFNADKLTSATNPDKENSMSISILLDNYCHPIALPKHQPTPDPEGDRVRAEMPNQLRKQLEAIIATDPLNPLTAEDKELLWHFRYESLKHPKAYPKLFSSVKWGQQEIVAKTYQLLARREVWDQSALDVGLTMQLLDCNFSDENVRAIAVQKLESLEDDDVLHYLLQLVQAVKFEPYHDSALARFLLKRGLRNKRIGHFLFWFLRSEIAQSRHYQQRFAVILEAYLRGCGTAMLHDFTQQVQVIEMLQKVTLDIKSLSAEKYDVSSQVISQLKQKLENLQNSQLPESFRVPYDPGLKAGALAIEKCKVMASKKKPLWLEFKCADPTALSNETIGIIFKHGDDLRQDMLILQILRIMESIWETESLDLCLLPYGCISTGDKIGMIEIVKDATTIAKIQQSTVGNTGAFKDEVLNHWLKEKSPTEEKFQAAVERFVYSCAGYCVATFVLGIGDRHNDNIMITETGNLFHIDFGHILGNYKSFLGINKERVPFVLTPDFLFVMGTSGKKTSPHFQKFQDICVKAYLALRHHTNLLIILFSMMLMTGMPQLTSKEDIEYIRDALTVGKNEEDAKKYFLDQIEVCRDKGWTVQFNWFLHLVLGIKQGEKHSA
T1 sequence (as listed by the source partner): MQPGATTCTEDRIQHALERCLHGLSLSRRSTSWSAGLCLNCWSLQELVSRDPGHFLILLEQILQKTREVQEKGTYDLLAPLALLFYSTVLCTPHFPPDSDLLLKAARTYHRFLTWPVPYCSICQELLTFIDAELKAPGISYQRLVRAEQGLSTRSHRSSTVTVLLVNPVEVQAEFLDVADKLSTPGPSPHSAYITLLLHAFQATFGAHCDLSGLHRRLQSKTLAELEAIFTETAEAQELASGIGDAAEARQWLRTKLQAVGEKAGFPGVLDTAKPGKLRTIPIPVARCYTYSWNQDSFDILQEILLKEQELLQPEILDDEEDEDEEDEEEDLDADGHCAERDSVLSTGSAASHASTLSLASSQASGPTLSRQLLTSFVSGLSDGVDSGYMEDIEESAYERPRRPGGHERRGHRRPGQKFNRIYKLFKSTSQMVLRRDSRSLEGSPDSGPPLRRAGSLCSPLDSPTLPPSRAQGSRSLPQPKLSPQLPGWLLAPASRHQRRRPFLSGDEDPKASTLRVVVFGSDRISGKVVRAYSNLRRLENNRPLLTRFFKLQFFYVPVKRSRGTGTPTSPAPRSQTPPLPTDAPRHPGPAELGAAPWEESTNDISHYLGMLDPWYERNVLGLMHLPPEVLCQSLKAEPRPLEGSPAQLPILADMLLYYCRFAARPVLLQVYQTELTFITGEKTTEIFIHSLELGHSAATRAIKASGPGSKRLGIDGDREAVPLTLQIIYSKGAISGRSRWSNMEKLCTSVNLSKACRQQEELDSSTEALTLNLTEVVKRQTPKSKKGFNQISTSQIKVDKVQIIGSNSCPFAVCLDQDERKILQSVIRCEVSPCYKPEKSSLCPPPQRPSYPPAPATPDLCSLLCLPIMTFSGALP

Consider `COC[C@H]1OC(=O)c2coc3c2[C@@]1(C)C1=C(C3=O)[C@@H]2CCC(=O)[C@@]2(C)C[C@H]1OC(C)=O` [wortmannin], for which, in test [1] (Thelen et al., 1994), the “fMLP-induced respiratory burst response” value is “prevents”. Further, the “superoxide production in neutrophils” value in test [1] is recorded as “shutdown of superoxide production”. Also, the “wortmannin sensitivity of PI3K activity in α-(EE)-p101 immunoprecipitates” value in test [2] was “wortmannin-sensitive”. The “inhibition of PI3K activity by wortmannin” value in test [3] is “completely inhibited”. Besides, in test [4], the “wortmannin sensitivity of free p120 PI3K activity” value is on record as “wortmannin-sensitive”.

These data come from patent US5869271A, “G-beta-gamma regulated phosphatidylinositol-3' kinase” (Onyx Pharmaceuticals, priority 1997, dated 1999).
